Test [1] addresses T1, Gastric H+/K+-ATPase (Oryctolagus cuniculus, UniProt P27112).
T1 construct: Gastric H^+/K^+-ATPase was prepared from rabbit glands; from tissue; host or cells: rabbit gastric glands
Briefly: Inhibition of H+/K+-ATPase activity (Malachite Green Pi assay). The test is classed as biochemical, rabbit. As to the method: The H^+/K^+-ATPase inhibition reaction was performed in buffer (50 mM Tris-HCl, 5 mM magnesium chloride, 10 μM valinomycin, pH 6.5) with or without 20 mM potassium chloride (KCl), and inorganic phosphate (Pi) was detected using Malachite Green solution, made from 0.1% malachite green, 1.5% hexaammonium molybdate, and 0.2% Tween-20 in a ratio of 100:25:2 ([Skou, 1982]; [Feng et al., 2011]). Gastric H^+/K^+-ATPase was prepared from rabbit glands, as described previously ([Kondo et al., 2012]; [Arikawa et al., 2012]). The reaction occurred in a 96-well plate with a total volume of 50 µL/well, including buffer, enzyme, ATP, and drug. After 30 min at 37 °C for enzyme stability, ATP was added at 0.2 mM to start the reaction, which was optimized from the titration experiments. The reaction lasted 20 min at 37 °C, followed by the addition of Malachite Green for the colorimetric assay. The enzyme control wells contained the full enzyme system, while the buffer control wells contained only buffer to correct for background values. Absorbance was measured at 620 nm using a plate reader (SpectraMax M5). The inhibition rate was calculated using the following formula, accounting for the enzyme activity in the presence and absence of K^+: Inhibition Rate %=ODwith K+and enzyme,without drug−ODwith K+and enzyme,with drug /ODwith K+and enzyme,without drug−ODwithout K+and enzyme,without drug×100 where “OD with K^+ and enzyme, without drug” is the optical density measured at 620 nm in the presence of K^+ and enzyme, without the tested drug (enzyme control wells); “OD with K^+ and enzyme, with drug” is the optical density measured at 620 nm in the presence of K^+ and enzyme, with the tested drug; and “OD without K^+ and enzyme, without drug” is the optical density measured at 620 nm in the absence of K^+ and enzyme, without the tested drug (buffer control wells).

Test [2] relates to gastric acid secretion in pylorus-ligated rats. Briefly: Gastric acid inhibition in pylorus-ligated rats. The test is classed as in vivo. Conditions: oral 2 mg/kg, pylorus-ligated rats, relative to vehicle. As to the method:
The rats were fasted overnight with ad libitum access to water. Drugs and vehicle were administered orally to rats in a blinded manner. The pylorus was ligated under ether anesthesia within 1 h after drug and vehicle administration, and the abdomen was closed by suturing. At 4 h after pyloric ligation, the rats were sacrificed by CO2 asphyxiation, and the stomach was removed ([Hori et al., 2010]). The gastric contents were collected and centrifuged at 3,000 rpm for 10 min. The volume of each sample was measured, the gastric acid concentration was determined by acid-base titration, and the total acidity was calculated.

Values joined by “and” are separate entries in the source; they are usually repeats but may differ in a detail not shown here. Equal values may be shown once. Read-outs that look alike come from different tables or passages of the source.

T1 sequence (P27112 whole entry): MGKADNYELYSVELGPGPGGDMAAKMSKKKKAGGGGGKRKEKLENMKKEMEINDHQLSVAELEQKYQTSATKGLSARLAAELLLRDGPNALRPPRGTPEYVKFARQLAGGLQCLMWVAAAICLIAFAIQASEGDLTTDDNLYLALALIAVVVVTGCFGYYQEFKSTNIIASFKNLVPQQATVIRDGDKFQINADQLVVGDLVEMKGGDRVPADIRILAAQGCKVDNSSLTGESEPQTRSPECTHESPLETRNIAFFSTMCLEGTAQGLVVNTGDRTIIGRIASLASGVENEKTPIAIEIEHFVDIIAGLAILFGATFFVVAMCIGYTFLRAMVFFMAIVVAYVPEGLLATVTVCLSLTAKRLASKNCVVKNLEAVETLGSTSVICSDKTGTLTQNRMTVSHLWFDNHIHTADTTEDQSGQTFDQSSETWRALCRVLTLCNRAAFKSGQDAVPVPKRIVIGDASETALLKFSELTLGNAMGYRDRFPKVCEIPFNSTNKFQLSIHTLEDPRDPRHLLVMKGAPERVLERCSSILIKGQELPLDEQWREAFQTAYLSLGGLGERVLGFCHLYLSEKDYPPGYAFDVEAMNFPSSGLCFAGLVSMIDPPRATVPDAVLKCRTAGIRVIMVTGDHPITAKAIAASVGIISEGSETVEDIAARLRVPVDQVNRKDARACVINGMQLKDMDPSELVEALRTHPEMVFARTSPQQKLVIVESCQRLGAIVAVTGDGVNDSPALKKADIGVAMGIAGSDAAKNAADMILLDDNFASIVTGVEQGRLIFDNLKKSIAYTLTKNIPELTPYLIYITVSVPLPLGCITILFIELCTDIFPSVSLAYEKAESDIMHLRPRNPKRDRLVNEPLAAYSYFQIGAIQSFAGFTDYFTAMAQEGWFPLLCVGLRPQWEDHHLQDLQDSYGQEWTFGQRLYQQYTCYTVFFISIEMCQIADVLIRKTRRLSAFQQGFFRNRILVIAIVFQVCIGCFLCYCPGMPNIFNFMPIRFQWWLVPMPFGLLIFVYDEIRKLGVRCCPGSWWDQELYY
T1 sequence (P18597 whole entry partner): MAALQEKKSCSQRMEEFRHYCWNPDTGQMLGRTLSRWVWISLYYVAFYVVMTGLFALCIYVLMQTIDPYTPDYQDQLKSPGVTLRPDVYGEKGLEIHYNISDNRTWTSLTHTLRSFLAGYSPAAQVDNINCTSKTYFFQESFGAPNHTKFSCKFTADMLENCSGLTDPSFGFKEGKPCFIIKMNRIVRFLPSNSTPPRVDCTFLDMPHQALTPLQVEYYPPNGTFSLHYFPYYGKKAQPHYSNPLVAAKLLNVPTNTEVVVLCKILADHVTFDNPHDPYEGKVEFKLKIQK

As to `CNCc1cc(-c2ccccc2F)n(S(=O)(=O)c2cccnc2)c1` [vonoprazan, 1-[5-(2-fluorophenyl)-1-(pyridin-3-ylsulfonyl)-1H-pyrrol-3-yl]-N-methylmethanamine], the “Inhibitory effect on H+/K+-ATPase in the absence of K+” value in test [1] (absence of K+) is “No measurable inhibitory effect”. In addition, the IC50 in test [1] (in the presence of K+ (20 mM KCl), pH 6.5, read-out: IC50, H+/K+-ATPase inhibition) was 17 nM and 17.1 nM; in test [1] (in the presence of potassium ions, rabbit gastric glands, read-out: IC50 (Figure 7A)), 17.1 nM. In addition, in test [2], the “Total acidity inhibitory rate (%)” value came to 47%.

The values are drawn from article PMC12446003, “Pharmacological characterization of linaprazan glurate (X842), a novel potassium-competitive acid blocker, in vitro and in vivo” (Frontiers in Pharmacology, 2025).
